Results from ChEMBL document CHEMBL1201862, “PubChem BioAssay data set” (2004).
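96-well plates; 48 h exposure; 5 concentrations. Endpoints by linear interpolation between flanking doses. Not reached: highest tested concentration assigned. The concentration for 50% growth inhibition is given as GI50.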 Active and inactive are the calls of the source. Cut-off read from the data, not from the text of the source: active = GI50 up to about 1.1 µM and inactive = higher.

Tests used:
Assay in all cases: growth of human tumour cells (NCI), 48 h
[1] = system: Malme-3M
[2] = system: ACHN
[3] = system: Hs-578T
[4] = system: SF-268
[5] = system: MCF7
[6] = system: IGROV-1
[7] = system: SK-MEL-2
[8] = system: 786-0
[9] = system: TK-10
[10] = system: OVCAR-4
[11] = system: NCI-H460
[12] = system: NCI-H23
[13] = system: OVCAR-5
[14] = system: HOP-92
[15] = system: OVCAR-8
[16] = system: A498
[17] = system: CCRF-CEM
[18] = system: MDA-N
[19] = system: SK-MEL-5
[20] = system: KM12
[21] = system: LOX IMVI
[22] = system: RPMI-8226
[23] = system: HT-29
[24] = system: M14
[25] = system: MDA-MB-231
[26] = system: DU-145
[27] = system: MOLT-4
[28] = system: UACC-257
[29] = system: UACC-62
[30] = system: SW-620
[31] = system: COLO 205
[32] = system: A549
[33] = system: SNB-19
[34] = system: SF-295
[35] = system: U-251
[36] = system: SN12C
[37] = system: NCI-H522
[38] = system: CAKI-1
[39] = system: NCI/ADR-RES
[40] = system: SR
[41] = system: HOP-62
[42] = system: PC-3
[43] = system: HCT-15
[44] = system: NCI-H226
[45] = system: HCT-116
[46] = system: RXF 393
[47] = system: EKVX
[48] = system: MDA-MB-435
[49] = system: OVCAR-3
[50] = system: K562
[51] = system: T47D
[52] = system: SNB-75
[53] = system: UO-31
[54] = system: SK-MEL-28
[55] = system: HL-60
[56] = system: SF-539
[57] = system: HCC 2998
[58] = system: SK-OV-3

Compound: CCOC(=O)NC(C(C(=O)OCC)C(=O)OCC)(C(F)(F)F)C(F)(F)F
- GI50 [1]: > 100 µM (inactive)
- GI50 [2]: > 100 µM (inactive)
- GI50 [3]: > 100 µM (inactive)
- GI50 [4]: > 100 µM (inactive)
- GI50 [5]: > 100 µM (inactive)
- GI50 [6]: > 100 µM (inactive)
- GI50 [7]: > 100 µM (inactive)
- GI50 [8]: > 100 µM (inactive)
- GI50 [9]: > 100 µM (inactive)
- GI50 [10]: > 100 µM (inactive)
- GI50 [11]: > 100 µM (inactive)
- GI50 [12]: > 100 µM (inactive)
- GI50 [13]: > 100 µM (inactive)
- GI50 [14]: > 100 µM (inactive)
- GI50 [15]: > 100 µM (inactive)
- GI50 [16]: > 100 µM (inactive)
- GI50 [17]: > 100 µM (inactive)
- GI50 [18]: > 100 µM (inactive)
- GI50 [19]: > 100 µM (inactive)
- GI50 [20]: > 100 µM (inactive)
- GI50 [21]: > 100 µM (inactive)
- GI50 [22]: > 100 µM (inactive)
- GI50 [23]: > 100 µM (inactive)
- GI50 [24]: > 100 µM (inactive)
- GI50 [25]: > 100 µM (inactive)
- GI50 [26]: > 100 µM (inactive)
- GI50 [27]: > 100 µM (inactive)
- GI50 [28]: > 100 µM (inactive)
- GI50 [29]: > 100 µM (inactive)
- GI50 [30]: > 100 µM (inactive)
- GI50 [31]: > 100 µM (inactive)
- GI50 [32]: > 100 µM (inactive)
- GI50 [33]: > 100 µM (inactive)
- GI50 [34]: > 100 µM (inactive)
- GI50 [35]: > 100 µM (inactive)
- GI50 [36]: > 100 µM (inactive)
- GI50 [37]: > 100 µM (inactive)
- GI50 [38]: > 100 µM (inactive)
- GI50 [39]: > 100 µM (inactive)
- GI50 [40]: > 100 µM (inactive)
- GI50 [41]: > 100 µM (inactive)
- GI50 [42]: > 100 µM (inactive)
- GI50 [43]: > 100 µM
- GI50 [44]: > 100 µM (inactive)
- GI50 [45]: > 100 µM (inactive)
- GI50 [46]: > 100 µM (inactive)
- GI50 [47]: > 100 µM (inactive)
- GI50 [48]: > 100 µM (inactive)
- GI50 [49]: > 100 µM (inactive)
- GI50 [50]: > 100 µM (inactive)
- GI50 [51]: > 100 µM (inactive)
- GI50 [52]: > 100 µM (inactive)
- GI50 [53]: > 100 µM (inactive)
- GI50 [54]: > 100 µM (inactive)
- GI50 [55]: > 100 µM (inactive)
- GI50 [56]: > 100 µM (inactive)

Compound: CSc1ccc(/C=C/c2ccnc3ccccc23)cc1
- GI50 [1]: 17.6 µM (inactive)
- GI50 [2]: 14.1 µM (inactive)
- GI50 [3]: 20.9 µM (inactive)
- GI50 [4]: 26 µM (inactive)
- GI50 [5]: 13.6 µM (inactive)
- GI50 [6]: 16.4 µM (inactive)
- GI50 [7]: 16.1 µM (inactive)
- GI50 [8]: 14.8 µM (inactive)
- GI50 [9]: 13.9 µM (inactive)
- GI50 [11]: 12.2 µM (inactive)
- GI50 [12]: 11.8 µM (inactive)
- GI50 [13]: 17.7 µM (inactive)
- GI50 [14]: 16.4 µM (inactive)
- GI50 [15]: 15.5 µM (inactive)
- GI50 [16]: 15.5 µM (inactive)
- GI50 [17]: 17.9 µM (inactive)
- GI50 [18]: 13.7 µM (inactive)
- GI50 [19]: 6.08 µM (inactive)
- GI50 [20]: 20.3 µM (inactive)
- GI50 [21]: 12.7 µM (inactive)
- GI50 [22]: 8.43 µM (inactive)
- GI50 [23]: 14 µM (inactive)
- GI50 [24]: 9.04 µM (inactive)
- GI50 [25]: 17 µM (inactive)
- GI50 [26]: 13.9 µM (inactive)
- GI50 [27]: 12.2 µM (inactive)
- GI50 [28]: 18.4 µM (inactive)
- GI50 [30]: 14 µM (inactive)
- GI50 [57]: 13.9 µM (inactive)
- GI50 [31]: 11.3 µM (inactive)
- GI50 [32]: 12.5 µM (inactive)
- GI50 [58]: 16 µM (inactive)
- GI50 [33]: 17.7 µM (inactive)
- GI50 [34]: 14.4 µM (inactive)
- GI50 [35]: 12.8 µM (inactive)
- GI50 [36]: 15.5 µM (inactive)
- GI50 [37]: 12.5 µM (inactive)
- GI50 [39]: 9.73 µM (inactive)
- GI50 [40]: 5.64 µM (inactive)
- GI50 [41]: 20.3 µM (inactive)
- GI50 [42]: 6.67 µM (inactive)
- GI50 [43]: 11.5 µM
- GI50 [44]: 14.5 µM (inactive)
- GI50 [45]: 10.5 µM (inactive)
- GI50 [46]: 18.5 µM (inactive)
- GI50 [47]: 10.4 µM (inactive)
- GI50 [48]: 3.69 µM (inactive)
- GI50 [49]: 13.2 µM (inactive)
- GI50 [50]: 5.47 µM (inactive)
- GI50 [51]: 5.58 µM (inactive)
- GI50 [52]: 20.4 µM (inactive)
- GI50 [53]: 11.8 µM (inactive)
- GI50 [54]: 17.4 µM (inactive)
- GI50 [55]: 3.97 µM (inactive)
- GI50 [56]: 17.6 µM (inactive)
